Experimental data from US9034916B2, “Pharmaceutical composition for the prevention or treatment of a neurodegenerative disease, comprising a Daphne genkwa extract or a compound isolated therefrom” (Korea Research Institute of Bioscience and Biotechnology, priority 2011, dated 2015).

Biological target: T1, Nurr1 protein (Homo sapiens, UniProt P43354)
T1 construct: three kinds of plasmid DNAs, including a DNA comprising Nurr1-LBD and a DNA having β-galactosidase, were transfected into BE(2)C cells; expressed in transfected cells; host or cells: BE(2)C human neuroblastoma cells
T1 sequence (P43354 360-595 limits assumed): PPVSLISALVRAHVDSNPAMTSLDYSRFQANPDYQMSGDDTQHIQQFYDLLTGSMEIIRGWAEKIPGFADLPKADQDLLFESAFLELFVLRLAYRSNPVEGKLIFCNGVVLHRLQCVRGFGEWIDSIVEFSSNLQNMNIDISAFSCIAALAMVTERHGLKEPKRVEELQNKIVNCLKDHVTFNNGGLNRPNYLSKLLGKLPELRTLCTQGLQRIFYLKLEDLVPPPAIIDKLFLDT
Experiment: Nurr1 luciferase reporter assay in BE(2)C cells transfected with Nurr1-LBD
Assay type: cell-based
Protocol: A gene comprising eight repeats of a nucleotide sequence (5′-CTCGGAGGACAGTACTCCG-3, SEQ ID NO: 1) to which GLA4 gene can bind was linked to the reporter gene luciferase to synthesize a vector. Then, three kinds of plasmid DNAs, including a DNA comprising Nurr1-LBD and a DNA having β-galactosidase, were transfected into BE(2)C cells, and after 6 hours, the cells were treated with 1-200 ppm of the Daphne genkwa extract. The treated cells were incubated in a 5% CO2 incubator at 37° C. for 20 hours, and then subjected to a luciferase assay (FIG. 1).
FIG. 1 is a graphic diagram showing the results of a luciferase assay conducted to examine the change in Nurr1 protein activity as a function of the concentration of the Daphne genkwa extract. As a control, 0.1% DMSO was used, and the increase in activity was expressed as folds of the activity of the control. […]
The effects of the Daphne genkwa extract fractions, obtained using various solvents in Example 2, on Nurr1 protein activity, were analyzed according to a method similar to the method described in Example 3. […]
According to a method similar to the method described in Example 3, the concentration dependences of the effects of genkwanine N and yuanhuacine on the activity of Nurr1 protein were analyzed, and the results of the analysis are shown in FIG. 5.

| Compound | increase of activity of Nurr1 protein (16 nM (corresponding to 0.01 ppm)) | increase of activity of Nurr1 protein (15 nM (corresponding to 0.01 ppm)) |
| --- | --- | --- |
| C=C(C)[C@]12C[C@@H](C)[C@@]34OC(c5ccccc5)(O[C@@H]1[C@@H]3[C@@H]1O[C@]1(CO)[C@@H](O)[C@@]1(O)[C@H]4C[C@H](C)[C@@H]1OC(=O)c1ccccc1)O2 [genkwanine N] | 60% |  |
| C=C(C)[C@@]12OC3(/C=C/C=C/CCCCC)O[C@@H]1[C@@H]1[C@@H]4O[C@]4(CO)[C@@H](O)[C@]4(O)C(=O)C(C)=C[C@H]4[C@@]1(O3)[C@H](C)[C@H]2OC(=O)c1ccccc1 [yuanhuacine] |  | 70% |
